The record followed here is ChEMBL document CHEMBL5131502, “Improving the treatment of Parkinson's disease: Structure-based development of novel 5-HT2A receptor antagonists/inverse agonists” (Eur J Med Chem, 2022).

Assay type in all cases: ADME, organism-based
Holding throughout (details): in vivo, po

Series [1] is described as follows: Half life in Sprague-Dawley rat at 2 mg/kg, IG administered as single dose measured upto 24 hrs by LC-MS/MS analysis.
Series [2] can be described thus: Half life in Sprague-Dawley rat at 4 mg/kg, IG administered as single dose measured upto 24 hrs by LC-MS/MS analysis.
A short description of series [3]: Tmax in Sprague-Dawley rat at 2 mg/kg, IG administered as single dose measured upto 24 hrs by LC-MS/MS analysis.
Series [4] can be described thus: Tmax in Sprague-Dawley rat at 4 mg/kg, IG administered as single dose measured upto 24 hrs by LC-MS/MS analysis.
Series [5] in a line: Cmax in Sprague-Dawley rat at 2 mg/kg, IG administered as single dose measured upto 24 hrs by LC-MS/MS analysis. More on the design: dose 2 mg/kg, time < 24 hrs, route ig.
A short description of series [6]: Cmax in Sprague-Dawley rat at 4 mg/kg, IG administered as single dose measured upto 24 hrs by LC-MS/MS analysis. More on the design: dose 4 mg/kg, time < 24 hrs, route ig.
Series [7] in a line: AUClast in Sprague-Dawley rat at 2 mg/kg, IG administered as single dose measured upto 24 hrs by LC-MS/MS analysis. More on the design: dose 2 mg/kg, time < 24 hrs, route ig.
Series [8] can be described thus: AUClast in Sprague-Dawley rat at 4 mg/kg, IG administered as single dose measured upto 24 hrs by LC-MS/MS analysis. Also noted: dose 4 mg/kg, time < 24 hrs, route ig.
Series [9] in a line: MRTlast in Sprague-Dawley rat at 2 mg/kg, IG administered as single dose measured upto 24 hrs by LC-MS/MS analysis.
Series [10] is described as follows: MRTlast in Sprague-Dawley rat at 4 mg/kg, IG administered as single dose measured upto 24 hrs by LC-MS/MS analysis.

Regarding `CN1CCC(N(Cc2ccc(F)cn2)C(=O)NCc2ccc(OCC(F)(F)F)cc2)CC1.O=C(O)C(O)C(O)C(=O)O`, the half-life (in general, the time needed for the level to fall by half in the phase considered) is 4.72 h in [1] and 4.44 h in series [2]. Further, the Tmax (in general, the time at which the peak concentration occurs) is 0.9 h in series [3] and 0.81 h in series [4]. In addition, the results for the Cmax in series [5] and in [6] were 87.7 nM and 174 nM, respectively. Also, the AUC(0-t) (in general, the area under the concentration-time curve up to a stated or last time point) at 24 h in series [7] stood at 0.683 µM·h; in [8], 1.22 µM·h. The MRT last (usually a mean duration of stay, worked out from the concentration-time curve) at 24 h in series [9] turned out to be 6.3 h; in series [10], 6.03 h.
